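Briefly, cells in 96-well plates were exposed to five compound concentrations for 48 h, and endpoints were estimated by linear interpolation. GI50: concentration for 50% inhibition of growth.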 The source made the active and inactive calls. Cut-off read from the data, not from the text of the source: active = GI50 up to about 1.1 µM and inactive = higher.
Key:
Experiment in all cases: growth of human tumour cells (NCI), 48 h
[1] = test system: CAKI-1
[2] = test system: CCRF-CEM
[3] = test system: EKVX
[4] = test system: HCT-116
[5] = test system: IGROV-1
[6] = test system: LOX IMVI
[7] = test system: M14
[8] = test system: MCF7
[9] = test system: MDA-MB-435
[10] = test system: NCI-H460
[11] = test system: NCI-H522
[12] = test system: OVCAR-3
[13] = test system: RXF 393
[14] = test system: SK-MEL-2
[15] = test system: SK-OV-3
[16] = test system: SN12C
[17] = test system: SNB-19
[18] = test system: SNB-75
[19] = test system: SR
[20] = test system: UACC-257

SMILES | GI50 [1] | GI50 [2] | GI50 [3] | GI50 [4] | GI50 [5] | GI50 [6] | GI50 [7] | GI50 [8] | GI50 [9] | GI50 [10] | GI50 [11] | GI50 [12] | GI50 [13] | GI50 [14] | GI50 [15] | GI50 [16] | GI50 [17] | GI50 [18] | GI50 [19] | GI50 [20]
Clc1ccc2c(NCCCCN3OC3c3ccccc3)ccnc2c1 (stereo not given) | 8.77 µM (inactive) | 2.15 µM (inactive) | 21.8 µM (inactive) | 2.06 µM (inactive) | 9.27 µM (inactive) | 2.13 µM (inactive) | 3.23 µM (inactive) | 4.29 µM (inactive) | 4.47 µM (inactive) | 6.5 µM (inactive) | 6.41 µM (inactive) | 4.45 µM (inactive) | 5.55 µM (inactive) | 4.79 µM (inactive) | 19.6 µM (inactive) | 11.1 µM (inactive) | 6.89 µM (inactive) | 5.82 µM (inactive) | 1.69 µM (inactive) | 18.1 µM (inactive)
OC1(c2ccccc2)CSC2=Nc3ccccc3C3CCN1N23 (stereo not given) | 21.1 µM (inactive) | 26.2 µM (inactive) | 3.89 µM (inactive) | 29.3 µM (inactive) | 13.3 µM (inactive) | 19 µM (inactive) | 21.9 µM (inactive) | 15.6 µM (inactive) | 17 µM (inactive) | 13.4 µM (inactive) | 20 µM (inactive) | 26.7 µM (inactive) | 20.9 µM (inactive) | 15.8 µM (inactive) | 32.7 µM (inactive) | 23.5 µM (inactive) | 15.5 µM (inactive) | 3.75 µM (inactive) | 20 µM (inactive) | 23.4 µM (inactive)
CN(C)CC1CCCCCC(Br)C1=O (stereo not given) | 6.59 µM (inactive) | 0.352 µM (active) | 15.1 µM (inactive) | 2.05 µM (inactive) | 28.2 µM (inactive) | 12.7 µM (inactive) | 15.6 µM (inactive) | 2.71 µM (inactive) | 16 µM (inactive) | 17.7 µM (inactive) | 3.66 µM (inactive) | 7.38 µM (inactive) | 15.4 µM (inactive) | 20.7 µM (inactive) | > 100 µM (inactive) | 16.8 µM (inactive) | > 83.2 µM (inactive) | 37.2 µM (inactive) | 1.64 µM (inactive) | 9.93 µM (inactive)
CCOC(=O)/C=C(\C(=O)OCC)n1ccc(=O)n(CC(=O)OCC)c1=O | 0.638 µM (active) | 0.592 µM (active) | 6.59 µM (inactive) | 1.77 µM (inactive) | 6.82 µM (inactive) | 2.11 µM (inactive) | 2.09 µM (inactive) | 3.16 µM (inactive) | 5.85 µM (inactive) | 15.6 µM (inactive) | 1 µM (active) | 3.96 µM (inactive) | 1.26 µM (inactive) | 14 µM (inactive) | 17.9 µM (inactive) | 4.84 µM (inactive) | 19.3 µM (inactive) | 9.75 µM (inactive) | 2.17 µM (inactive) | 11.6 µM (inactive)
CCOC(=O)C1=CN(C(=O)c2ccccc2)CCC1Cc1ccccc1 (stereo not given) | 24.4 µM (inactive) | 18 µM (inactive) | 24 µM (inactive) | 23.1 µM (inactive) | 27.3 µM (inactive) | 18 µM (inactive) | 18.6 µM (inactive) | 23.1 µM (inactive) | 20.4 µM (inactive) | 17.5 µM (inactive) | 16.2 µM (inactive) | 25.9 µM (inactive) | 18.1 µM (inactive) | 16.8 µM (inactive) | 31 µM (inactive) | 23.1 µM (inactive) | 34.4 µM (inactive) | 18.2 µM (inactive) | 12.5 µM (inactive) | 15.8 µM (inactive)
Cc1c[nH]c2c(O)cc3c(c12)[C@H](CCl)CN3C(=O)c1cc2cc(NC(=O)Nc3ccc4[nH]c(C(=O)N5C[C@@H](CCl)c6c5cc(O)c5[nH]cc(C)c65)cc4c3)ccc2[nH]1 [BIZELESIN] | 9.16 µM (inactive) | 0.274 µM (active) | > 100 µM (inactive) | 2.6 µM (inactive) | 19.4 µM (inactive) | 3.6 µM (inactive) | 0.631 µM (active) | 0.578 µM (active) | 0.113 µM (active) | < 0.001 µM (active) | < 0.001 µM (active) | 18.6 µM (inactive) | > 100 µM (inactive) | 34.4 µM (inactive) | 0.141 µM (active) | 0.378 µM (active) | 28.5 µM (inactive) | 1.09 µM (active) | 0.0832 µM (active) | 14.6 µM (inactive)

— ChEMBL document CHEMBL1201862, “PubChem BioAssay data set” (2004)
